molecular target: T1, ERR1 (also known as ERR-α or ERR-1) (Homo sapiens, UniProt P11474); assay: TR-FRET Assay (disruption of co-activator peptide binding to ERR1 LBD); format: biochemical; settings: 6His-tagged ERR1 LBD 6 nM, GST-hSRC2 co-activator peptide 6 nM; 25° C., 4-18 hours; average of 3 independent experiments
T1 sequence (P11474 193-421 limits assumed): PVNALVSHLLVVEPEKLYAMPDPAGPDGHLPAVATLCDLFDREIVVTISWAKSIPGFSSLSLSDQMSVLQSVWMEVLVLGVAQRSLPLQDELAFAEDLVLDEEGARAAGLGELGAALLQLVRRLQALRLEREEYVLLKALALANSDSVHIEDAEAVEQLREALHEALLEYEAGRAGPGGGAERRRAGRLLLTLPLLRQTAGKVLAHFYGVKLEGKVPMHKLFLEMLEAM
Procedure: Time-Resolved Fluorescence Resonance Energy Transfer (TR-FRET) experiments were performed to examine the functional response of ERR1 (also known as ERR-α or ERR-1) ligands. The TR-FRET assay described herein relied on the conformation of ERR1 for binding to a co-activator peptide: when a test compound binds to ERR1 and alters its conformation, it can disrupt the binding of the co-activator peptide. The components of this homogeneous secondary assay included: the ^6His-tagged-ERR1LBD, a GST-labeled-hSRC2 co-activator polypeptide and a fluorescent donor/acceptor pair from CIS bio international htrf/bioassays (Bedford, Mass.) using both an α-GST Europium Cryptate (Eu) label and an α^6His-XL665 (allophycocyanin) fluorophore.
For TR-FRET measurements, the reaction was buffered in 25 mM Tris pH 8, 2.5 mM Hepes, 20 mM KCl, 1 mM DTT, and 0.05 mg/mL BSA (-lipids). The final concentrations of reagents were 6 nM of ERR1LBD, 6 nM GST-SRC-2 peptide, 30 nM Eu cryptate, and 7.5 nM XL665. Reactions were allowed to reach equilibrium at 25° C. for 4-18 hours before collecting data on the Analyst from LJL Biosystems (Molecular Devices Sunnyvale, Calif.). As a time-resolved method, the samples were excited at […] and emission was collected for 1 ms at both 615 and 665 nm with delays of 400 and 75 μs, respectively. Dose response curves were fitted using a hyperbolic equation and the data reported is the average of 3 independent experiments.

Row | EC50 [nM] | SMILES
1 | 320 | COc1cc(/C=C2\SC(=O)N(CCN3CCN(C)CC3)C2=O)ccc1Oc1ccc(C#N)cc1C(F)(F)F [Compound 4, 4-(2-Methoxy-4-{3-[2-(4-methyl-piperazin-1-yl)-ethyl]-2,4-dioxo-thiazolidin-5-ylidenemethyl}-phenoxy)-3-trifluoromethyl-benzonitrile]
2 | 33 | COc1cc(/C=C2\SC(=O)N(CCN3CCCCC3)C2=O)ccc1Oc1ccc(C#N)cc1C(F)(F)F [Compound 9, 4-{4-[2,4-Dioxo-3-(2-piperidin-1-yl-ethyl)-thiazolidin-5-ylidenemethyl]-2-methoxy-phenoxy}-3-trifluoromethyl-benzonitrile]
3 | 24 | COc1cc(/C=C2\SC(=O)N(CCn3cncn3)C2=O)ccc1Oc1ccc(C#N)cc1C(F)(F)F [Compound 11, 4-{4-[2,4-Dioxo-3-(2-[1,2,4]triazol-1-yl-ethyl)-thiazolidin-5-ylidenemethyl]-2-methoxy-phenoxy}-3-trifluoromethyl-benzonitrile]
4 | 32 | COc1cc(/C=C2\SC(=O)N(CCn3ccnc3)C2=O)ccc1Oc1ccc(C#N)cc1C(F)(F)F [Compound 8, 4-{4-[3-(2-Imidazol-1-yl-ethyl)-2,4-dioxo-thiazolidin-5-ylidenemethyl]-2-methoxy-phenoxy}-3-trifluoromethyl-benzonitrile]
5 | 230 | N#Cc1ccc(Oc2ccc(/C=C3\SC(=O)N(CCN4CCCC4)C3=O)cc2F)c(C(F)(F)F)c1 [Compound 14, 4-{4-[2,4-Dioxo-3-(2-pyrrolidin-1-yl-ethyl)-thiazolidin-5-ylidenemethyl]-2-fluoro-phenoxy}-3-trifluoromethyl-benzonitrile]
6 | 42 | COc1cc(/C=C2\SC(=O)N(CCN3CCCC3)C2=O)ccc1Oc1ccc(C#N)cc1C(F)(F)F [Compound 3, 4-{4-[2,4-Dioxo-3-(2-pyrrolidin-1-yl-ethyl)-thiazolidin-5-ylidenemethyl]-2-methoxy-phenoxy}-3-trifluoromethyl-benzonitrile]
7 | 59 | CCN(CC)CCN1C(=O)S/C(=C\c2ccc(Oc3ccc(C#N)cc3C(F)(F)F)c(OC)c2)C1=O [Compound 7, 4-{4-[3-(2-Diethylamino-ethyl)-2,4-dioxo-thiazolidin-5-ylidenemethyl]-2-methoxy-phenoxy}-3-trifluoromethyl-benzonitrile]
8 | 86 | COc1cc(/C=C2\SC(=O)N(CCn3cccc3)C2=O)ccc1Oc1ccc(C#N)cc1C(F)(F)F [Compound 13, 4-{4-[2,4-Dioxo-3-(2-pyrrol-1-yl-ethyl)-thiazolidin-5-ylidenemethyl]-2-methoxy-phenoxy}-3-trifluoromethyl-benzonitrile]
9 | 59 | COc1cc(/C=C2\SC(=O)N(CCn3cccn3)C2=O)ccc1Oc1ccc(C#N)cc1C(F)(F)F [Compound 10, 4-{4-[2,4-Dioxo-3-(2-pyrazol-1-yl-ethyl)-thiazolidin-5-ylidenemethyl]-2-methoxy-phenoxy}-3-trifluoromethyl-benzonitrile]
10 | 320 | N#Cc1ccc(Oc2ccc(/C=C3\SC(=O)N(CCN4CCOCC4)C3=O)cc2F)c(C(F)(F)F)c1 [Compound 6, 4-{2-Fluoro-4-[3-(2-morpholin-4-yl-ethyl)-2,4-dioxo-thiazolidin-5-ylidenemethyl]-phenoxy}-3-trifluoromethyl-benzonitrile]
11 | 360 | CN(C)CCN1C(=O)S/C(=C\c2ccc(Oc3ccc(C#N)cc3C(F)(F)F)c(F)c2)C1=O [Compound 5, 4-{4-[3-(2-Dimethylamino-ethyl)-2,4-dioxo-thiazolidin-5-ylidenemethyl]-2-fluoro-phenoxy}-3-trifluoromethyl-benzonitrile]
12 | 20 | COc1cc(/C=C2\SC(=O)N(CCN3CCOCC3)C2=O)ccc1Oc1ccc(C#N)cc1C(F)(F)F [Compound 1, 4-{2-Methoxy-4-[3-(2-morpholin-4-yl-ethyl)-2,4-dioxo-thiazolidin-5-ylidenemethyl]-phenoxy}-3-trifluoromethyl-benzonitrile]
13 | 39 | COc1cc(/C=C2\SC(=O)N(CCN(C)C)C2=O)ccc1Oc1ccc(C#N)cc1C(F)(F)F [Compound 2, 4-{4-[3-(2-Dimethylamino-ethyl)-2,4-dioxo-thiazolidin-5-ylidenemethyl]-2-methoxy-phenoxy}-3-trifluoromethyl-benzonitrile]
14 | 44 | COc1cc(/C=C2\SC(=O)N(CCN3CCCCCC3)C2=O)ccc1Oc1ccc(C#N)cc1C(F)(F)F [Compound 12, 4-{4-[3-(2-Azepan-1-yl-ethyl)-2,4-dioxo-thiazolidin-5-ylidenemethyl]-2-methoxy-phenoxy}-3-trifluoromethyl-benzonitrile]
